# From patent US7132546B2, “Aniline derivatives or salts thereof and cytokine production inhibitors containing the same” (Ishihara Sangyo Kaisha, Ltd., priority 2000, dated 2006)
# Columns and labels:
# [1] = system: interleukin 5 (IL-5) production; experiment: Cytokine production inhibitory effect: IL-5 production by murine spleen cells treated with anti-mouse CD3 antibody and IL-2 (ELISA); assay type: cell-based, Balb/c mice; conditions: test compound 100 ppm, anti-CD3 antibody + IL-2, 40 to 48 hours, read-out: IL-5 production inhibitory ratio (%)
# [2] = system: interferon γ (IFN-γ) production; experiment: Cytokine production inhibitory effect: IFN-γ production by murine spleen cells treated with anti-mouse CD3 antibody and IL-2 (ELISA); assay type: cell-based, Balb/c mice; conditions: test compound 100 ppm, anti-CD3 antibody + IL-2, 40 to 48 hours, read-out: IFN-γ production inhibitory ratio (%)
SMILES,melting point,inhibition at 100 ppm [1],inhibition at 100 ppm [2]
O=C(Nc1ccc(Oc2ncc(C(F)(F)F)cc2Cl)cc1)c1cc([N+](=O)[O-])ccc1Br [compound 99],191 to 195 °C,100%,89%
COC(=O)c1cc(Oc2ncc(C(F)(F)F)cc2Cl)ccc1NC(=O)c1cc([N+](=O)[O-])ccc1Cl [compound 100],154 to 158 °C,92%,93%
O=C(Nc1ccc(Oc2ncc(C(F)(F)F)cc2Cl)cc1C(=O)O)c1cc([N+](=O)[O-])ccc1Cl [compound 101],240 to 245 °C,100%,100%
Cc1cc(Oc2ncc(C(F)(F)F)cc2Cl)c(C)cc1NC(=O)c1cc([N+](=O)[O-])ccc1Cl [compound 105],296 to 298 °C,55%,25%
COC(=O)c1cc(NC(=O)c2cc([N+](=O)[O-])ccc2Cl)ccc1Oc1ncc(C(F)(F)F)cc1Cl [compound 107],226 to 229 °C,99%,97%
COc1cc(NC(=O)c2cc([N+](=O)[O-])ccc2Cl)ccc1Oc1ncc(C(F)(F)F)cc1Cl [compound 109],190 to 193 °C,100%,95%
O=C(Nc1ccc(OCC23CC4CC(CC(C4)C2)C3)cc1)c1cc([N+](=O)[O-])ccc1Cl [compound 110],175 to 180 °C,99%,100%
O=C(Nc1ccc(OC2C3CC4CC(C3)CC2C4)cc1)c1cc([N+](=O)[O-])ccc1Cl (stereo not drawn) [compound 111],178 to 180 °C,99%,99%
O=C(Nc1cc(Cl)c(Oc2ncc(C(F)(F)F)cc2Cl)c(Cl)c1)c1cc([N+](=O)[O-])ccc1Cl [compound 112],189 to 191 °C,100%,100%
O=C(Nc1ccc(Oc2ncc(C(F)(F)F)cc2Cl)c(Cl)c1)c1cc([N+](=O)[O-])ccc1Cl [compound 113],222 to 225 °C,96%,97%
NC(=O)c1cc(NC(=O)c2cc([N+](=O)[O-])ccc2Cl)ccc1Oc1ncc(C(F)(F)F)cc1Cl [compound 116],239 to 244 °C,100%,99%
Cc1cc(NS(=O)(=O)c2cc([N+](=O)[O-])ccc2Cl)ccc1Oc1ncc(C(F)(F)F)cc1Cl [compound 117],233 to 236 °C,100%,100%
Cc1cc(NC(=O)c2cc(C#N)ccc2Cl)ccc1Oc1ncc(C(F)(F)F)cc1Cl [compound 118],221 to 223 °C,78%,47%
Cc1cc(NC(=O)c2cc([N+](=O)[O-])ccc2F)ccc1Oc1ncc(C(F)(F)F)cc1Cl [compound 119],179 to 181 °C,100%,99%
Cc1cc(NC(=O)c2cc([N+](=O)[O-])ccc2Br)ccc1Oc1ncc(C(F)(F)F)cc1Cl [compound 120],246 to 248 °C,84%,35%
Nc1cc(NC(=O)c2cc([N+](=O)[O-])ccc2Cl)ccc1Oc1ncc(C(F)(F)F)cc1Cl [compound 121],235 to 237 °C,97%,100%
N#Cc1cc(NC(=O)c2cc([N+](=O)[O-])ccc2Cl)ccc1Oc1ncc(C(F)(F)F)cc1Cl [compound 122],194 to 198 °C,100%,100%
CC(=O)Nc1cc(NC(=O)c2cc([N+](=O)[O-])ccc2Cl)ccc1Oc1ncc(C(F)(F)F)cc1Cl [compound 125],203 to 205 °C,100%,100%
O=C(Nc1ccc(Oc2ncc(C(F)(F)F)cc2Cl)c(O)c1)c1cc([N+](=O)[O-])ccc1Cl [compound 126],194 to 197 °C,100%,100%

SMILES,melting point,inhibition at 100 ppm [1],inhibition at 100 ppm [2]
CN(C)c1cc(NC(=O)c2cc([N+](=O)[O-])ccc2Cl)ccc1Oc1ncc(C(F)(F)F)cc1Cl [compound 128],208 to 213 °C,96%,93%
CN(c1cc(NC(=O)c2cc([N+](=O)[O-])ccc2Cl)ccc1O)c1ncc(C(F)(F)F)cc1Cl [compound 129],273 to 276 °C,86%,67%
O=C(Nc1ccc(Oc2ncc(C(F)(F)F)cc2Cl)c(N2CCCC2)c1)c1cc([N+](=O)[O-])ccc1Cl [compound 130],235 to 237 °C,100%,99%
O=C(Nc1ccc(Oc2ncc(C(F)(F)F)cc2Cl)c(N2CCCCC2)c1)c1cc([N+](=O)[O-])ccc1Cl [compound 131],194 to 198 °C,100%,100%
O=C(Nc1ccc(Nc2ncc(C(F)(F)F)cc2Cl)cc1)c1cc([N+](=O)[O-])ccc1Cl [compound 132],215 to 218 °C,99%,100%
CN(c1ccc(NC(=O)c2cc([N+](=O)[O-])ccc2Cl)cc1)c1ncc(C(F)(F)F)cc1Cl [compound 133],212 to 216 °C,99%,100%
O=C(Nc1ccc(S(=O)(=O)Nc2ccccn2)cc1)c1cc([N+](=O)[O-])ccc1Cl [compound 136],178 to 181 °C,98%,100%
O=C(Nc1ccc(S(=O)(=O)Nc2ncccn2)cc1)c1cc([N+](=O)[O-])ccc1Cl [compound 137],252 to 258 °C,98%,98%
O=C(Nc1ccc(S(=O)(=O)NC2=NC3C=CC=CC3N=C2)cc1)c1cc([N+](=O)[O-])ccc1Cl (stereo not drawn) [compound 138],146 to 150 °C,99%,100%
O=C(Nc1ccc2c(c1)CCC2)c1cc([N+](=O)[O-])ccc1Cl [compound 139],225 to 229 °C,89%,50%
O=C(Nc1ccc2ncsc2c1)c1cc([N+](=O)[O-])ccc1Cl [compound 140],242 to 244 °C,100%,100%
O=C(Nc1nc(-c2ccc(Cl)cc2)cs1)c1cc([N+](=O)[O-])ccc1Cl [compound 141],217 to 221 °C,100%,100%
O=C(Nc1ccc(S(=O)(=O)Nc2nccs2)cc1)c1cc([N+](=O)[O-])ccc1Cl [compound 142],140 to 147 °C,95%,99%
O=C(Nc1nc2ccccc2s1)c1cc([N+](=O)[O-])ccc1Cl [compound 143],221 to 227 °C,97%,100%
O=C(Nc1ccc(=O)n(-c2ncc(C(F)(F)F)cc2Cl)c1)c1cc([N+](=O)[O-])ccc1Cl [compound 144],116 °C,99%,100%
Cc1ccc(S(=O)(=O)Nc2ccc(NC(=O)c3cc([N+](=O)[O-])ccc3Cl)cc2)cc1 [compound 145],165 to 172 °C,100%,100%
O=C(NS(=O)(=O)c1ccc(NC(=O)c2cc([N+](=O)[O-])ccc2Cl)cc1)c1ccccc1 [compound 146],235 to 237 °C,62%,43%
Cc1cc(NC(=O)c2cc([N+](=O)[O-])ccc2Cl)ccc1Nc1ncc(C(F)(F)F)cc1Cl [compound 148],189 to 192 °C,94%,81%
